The numbers were not newly measured in US20140030313A1, “TREATMENT OF MENSTRUAL PAIN AND EXCESSIVE MENSTRUAL BLOOD LOSS BY INTRAVAGINAL ADMINISTRATION OF A LOW DOSE OF ANTIFIBRINOLYTIC OR HEMOSTATIC AGENT IN COMBINATION WITH NON-STEROIDAL ANTI-INFLAMMATORY DRUG” (ARSTAT Inc., priority 2011, published 2014), which cites them from elsewhere.

For data set [1] the following is noted: intravaginal tampon at 20% of the oral dose, vs oral capsules.
Test in data set [2]: not given
This is another data set of the same source.

Test in data set [3]: not given
The source holds these as a separate data set.

For data set [4] the following is noted: oral, 6 g/day.

`Cc1cccc(Nc2ccccc2C(=O)O)c1C` [mefenamic acid]: the pain relief entry in data set [1] is “pain relief equivalent to that achieved with the oral capsules”.

In the case of aprotinin, under “locally administered”, the plasma drug levels entry is “without detectable plasma drug levels” and the postoperative blood loss result is recorded as “Reduction of the postoperative blood loss”.

As for `NC[C@H]1CC[C@H](C(=O)O)CC1` [Lysteda], in data set [2] (Lysteda NDA medical review), the “subjects returned to normal MBL after treatment (mean on-treatment MBL of less than 80 mL)” value is 44%. The “MBL reduction targets established by the FDA” value in data set [2] (oral, 3900 mg/day regimen) was “meets MBL reduction targets established by the FDA”.

Take `NC[C@H]1CC[C@H](C(=O)O)CC1` [tranexamic acid]: the “difference to placebo in reduction of large stains, small and large clots and changes in serum ferritin levels” value in data set [2] (tranexamic acid vs placebo treatment) is “no statistically significant differences”. Also, the “incidence of postoperative bleeding complications” value (mouthwash, compared to placebo) is given as “reduce the incidence of postoperative bleeding complications”. In addition, in data set [3] (after a mouth rinse), the plasma concentrations result is “below 2 mcg/mL”; the “saliva concentrations, maximum level” value was “above 200 mcg/mL”; the “time saliva concentration remained at a therapeutic level” value is given as “more than two hours”. In data set [3] (after an oral tablet), the “drug in saliva samples” value is recorded as “not detected” and the “mean drug plasma concentrations” value is 7 µg/mL. Moreover, in data set [4], the “risk of gastrointestinal adverse events” value is “increased”.
